The source of these data is ChEMBL document CHEMBL5465560, “Selectivity Literature for EUbOPEN Chemogenomic Library” (2024).

Molecules are shown by their SMILES.

Test [1] addresses T1, 5-hydroxytryptamine receptor 2C (Homo sapiens) (UniProt P28335).
T1 sequence (whole entry): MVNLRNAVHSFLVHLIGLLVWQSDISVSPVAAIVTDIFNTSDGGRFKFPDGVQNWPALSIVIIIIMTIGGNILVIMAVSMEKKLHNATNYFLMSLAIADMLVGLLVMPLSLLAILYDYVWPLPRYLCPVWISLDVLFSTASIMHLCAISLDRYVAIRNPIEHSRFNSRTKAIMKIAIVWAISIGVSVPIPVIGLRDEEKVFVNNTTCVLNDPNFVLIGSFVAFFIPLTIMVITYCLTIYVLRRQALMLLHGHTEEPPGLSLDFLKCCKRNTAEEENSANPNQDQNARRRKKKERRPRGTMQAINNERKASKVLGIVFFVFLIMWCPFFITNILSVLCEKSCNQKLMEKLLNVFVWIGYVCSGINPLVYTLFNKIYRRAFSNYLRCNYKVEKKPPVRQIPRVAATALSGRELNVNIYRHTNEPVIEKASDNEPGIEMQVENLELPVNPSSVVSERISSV
The test can be described thus: Selectivity interaction (GPCR panel (PDSP screen)) EUB0001079a HTR2C. The conditions noted are these: at 10 µM.

The target in test [2] is T2, Serine/threonine-protein kinase TAO3 (Homo sapiens) (UniProt Q9H2K8).
T2 sequence (whole entry): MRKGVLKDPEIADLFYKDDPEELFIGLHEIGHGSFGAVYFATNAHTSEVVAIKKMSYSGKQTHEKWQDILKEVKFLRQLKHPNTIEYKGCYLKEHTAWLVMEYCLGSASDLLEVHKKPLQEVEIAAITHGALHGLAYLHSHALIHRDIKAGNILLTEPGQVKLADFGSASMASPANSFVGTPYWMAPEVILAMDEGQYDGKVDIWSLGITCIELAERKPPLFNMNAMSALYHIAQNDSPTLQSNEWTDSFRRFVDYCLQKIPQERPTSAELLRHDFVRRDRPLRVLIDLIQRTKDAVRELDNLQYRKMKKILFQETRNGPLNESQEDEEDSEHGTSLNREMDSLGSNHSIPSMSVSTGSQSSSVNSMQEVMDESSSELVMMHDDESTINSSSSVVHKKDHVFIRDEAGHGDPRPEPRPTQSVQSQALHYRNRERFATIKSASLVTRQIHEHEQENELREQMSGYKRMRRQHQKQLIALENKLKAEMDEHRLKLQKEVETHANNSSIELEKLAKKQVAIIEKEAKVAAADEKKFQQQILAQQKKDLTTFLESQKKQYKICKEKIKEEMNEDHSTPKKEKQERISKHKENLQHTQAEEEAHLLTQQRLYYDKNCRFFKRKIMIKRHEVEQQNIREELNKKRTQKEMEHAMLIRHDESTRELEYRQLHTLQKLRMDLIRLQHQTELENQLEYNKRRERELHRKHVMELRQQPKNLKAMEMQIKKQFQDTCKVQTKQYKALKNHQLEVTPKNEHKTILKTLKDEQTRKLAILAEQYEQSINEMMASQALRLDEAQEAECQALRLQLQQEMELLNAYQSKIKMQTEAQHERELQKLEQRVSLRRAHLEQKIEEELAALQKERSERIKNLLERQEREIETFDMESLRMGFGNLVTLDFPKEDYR
The test can be described thus: Selectivity interaction (ActivX KiNativ screen (kinase selectivity in THP-1 cell lysates)) EUB0000639a TAOK3. The test is classed as subcellular. The following applies: lysate.

The target in test [3] is T3, SNF-related serine/threonine-protein kinase (Homo sapiens) (UniProt Q9NRH2).
T3 sequence (whole entry): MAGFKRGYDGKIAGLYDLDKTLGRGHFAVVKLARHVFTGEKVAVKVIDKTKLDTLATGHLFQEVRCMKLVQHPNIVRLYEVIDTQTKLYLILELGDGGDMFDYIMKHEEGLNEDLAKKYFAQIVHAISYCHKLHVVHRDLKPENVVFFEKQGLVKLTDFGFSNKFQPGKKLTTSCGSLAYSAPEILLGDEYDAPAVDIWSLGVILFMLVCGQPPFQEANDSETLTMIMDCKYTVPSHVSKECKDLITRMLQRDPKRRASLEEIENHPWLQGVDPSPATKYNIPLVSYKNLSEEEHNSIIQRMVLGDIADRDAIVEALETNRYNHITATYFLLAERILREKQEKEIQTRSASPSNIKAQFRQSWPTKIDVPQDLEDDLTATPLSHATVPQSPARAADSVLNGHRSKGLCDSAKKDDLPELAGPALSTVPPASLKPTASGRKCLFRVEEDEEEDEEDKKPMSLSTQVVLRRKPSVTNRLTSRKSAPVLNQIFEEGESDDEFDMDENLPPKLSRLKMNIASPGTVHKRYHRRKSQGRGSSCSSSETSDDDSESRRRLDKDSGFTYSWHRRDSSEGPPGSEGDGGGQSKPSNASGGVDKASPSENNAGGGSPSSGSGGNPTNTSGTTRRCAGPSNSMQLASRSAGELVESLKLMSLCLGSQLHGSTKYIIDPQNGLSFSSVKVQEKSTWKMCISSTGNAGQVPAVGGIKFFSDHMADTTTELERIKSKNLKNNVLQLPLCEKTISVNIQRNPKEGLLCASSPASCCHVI
The test can be described thus: Selectivity interaction (ActivX KiNativ screen (kinase selectivity in THP-1 cell lysates)) EUB0000639a SNRK. It is filed as subcellular. The conditions noted are these: lysate, at 0.2 µM.

Test [4] concerns the target Serine/threonine-protein kinase 10 (Homo sapiens) (UniProt O94804). Put plainly: Selectivity interaction (ActivX KiNativ screen (kinase selectivity in THP-1 cell lysates)) EUB0000639a STK10. It is filed as subcellular. The following applies: lysate, at 0.04 µM.
For test [5], the target named is T4, Scaffold protein ILK (Homo sapiens) (UniProt Q13418).
T4 sequence (whole entry): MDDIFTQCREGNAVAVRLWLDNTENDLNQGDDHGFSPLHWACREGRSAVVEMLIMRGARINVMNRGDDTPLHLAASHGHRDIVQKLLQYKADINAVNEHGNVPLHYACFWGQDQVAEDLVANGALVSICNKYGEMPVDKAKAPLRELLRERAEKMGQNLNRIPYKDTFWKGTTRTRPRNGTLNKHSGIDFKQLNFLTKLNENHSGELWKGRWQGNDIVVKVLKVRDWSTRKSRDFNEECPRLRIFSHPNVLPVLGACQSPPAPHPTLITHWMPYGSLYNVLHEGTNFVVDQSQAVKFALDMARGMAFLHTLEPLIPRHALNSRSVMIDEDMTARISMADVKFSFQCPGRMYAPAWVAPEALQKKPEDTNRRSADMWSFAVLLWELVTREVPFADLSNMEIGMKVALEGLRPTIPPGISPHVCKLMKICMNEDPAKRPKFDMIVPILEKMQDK
The test can be described thus: Selectivity interaction (ActivX KiNativ screen (ex vivo kinase selectivity in human PBMCs)) EUB0001619a ILK. The test is classed as cell-based. The conditions noted are these: PBMC, at 1 µM.

The target of test [6] is Protein kinase C beta type (Homo sapiens, UniProt P05771). The test can be described thus: Selectivity interaction (Kinase panel (literature)) EUB0001199aCl PRKCB. The conditions noted are these: at 1 µM.
Protein kinase C beta type, sequence (P05771 2-671 limits assumed): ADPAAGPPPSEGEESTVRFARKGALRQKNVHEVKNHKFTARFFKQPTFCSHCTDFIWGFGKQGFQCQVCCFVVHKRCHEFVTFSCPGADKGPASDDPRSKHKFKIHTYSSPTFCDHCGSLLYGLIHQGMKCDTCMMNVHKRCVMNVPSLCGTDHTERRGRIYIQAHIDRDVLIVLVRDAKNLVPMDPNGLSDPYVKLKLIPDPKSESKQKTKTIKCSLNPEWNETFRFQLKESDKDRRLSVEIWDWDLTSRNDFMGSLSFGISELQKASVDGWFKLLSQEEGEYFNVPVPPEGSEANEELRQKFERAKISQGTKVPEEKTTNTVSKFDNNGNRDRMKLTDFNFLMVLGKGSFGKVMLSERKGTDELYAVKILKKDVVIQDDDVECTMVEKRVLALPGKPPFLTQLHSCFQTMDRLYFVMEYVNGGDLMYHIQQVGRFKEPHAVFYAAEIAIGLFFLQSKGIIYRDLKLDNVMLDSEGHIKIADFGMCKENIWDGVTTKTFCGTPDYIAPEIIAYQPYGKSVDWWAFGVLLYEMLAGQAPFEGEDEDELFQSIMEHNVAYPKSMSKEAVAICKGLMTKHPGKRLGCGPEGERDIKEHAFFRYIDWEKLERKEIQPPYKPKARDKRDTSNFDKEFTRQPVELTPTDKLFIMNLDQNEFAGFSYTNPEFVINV

Serine/threonine-protein kinase 10 (Homo sapiens), sequence (O94804 whole entry, looked up): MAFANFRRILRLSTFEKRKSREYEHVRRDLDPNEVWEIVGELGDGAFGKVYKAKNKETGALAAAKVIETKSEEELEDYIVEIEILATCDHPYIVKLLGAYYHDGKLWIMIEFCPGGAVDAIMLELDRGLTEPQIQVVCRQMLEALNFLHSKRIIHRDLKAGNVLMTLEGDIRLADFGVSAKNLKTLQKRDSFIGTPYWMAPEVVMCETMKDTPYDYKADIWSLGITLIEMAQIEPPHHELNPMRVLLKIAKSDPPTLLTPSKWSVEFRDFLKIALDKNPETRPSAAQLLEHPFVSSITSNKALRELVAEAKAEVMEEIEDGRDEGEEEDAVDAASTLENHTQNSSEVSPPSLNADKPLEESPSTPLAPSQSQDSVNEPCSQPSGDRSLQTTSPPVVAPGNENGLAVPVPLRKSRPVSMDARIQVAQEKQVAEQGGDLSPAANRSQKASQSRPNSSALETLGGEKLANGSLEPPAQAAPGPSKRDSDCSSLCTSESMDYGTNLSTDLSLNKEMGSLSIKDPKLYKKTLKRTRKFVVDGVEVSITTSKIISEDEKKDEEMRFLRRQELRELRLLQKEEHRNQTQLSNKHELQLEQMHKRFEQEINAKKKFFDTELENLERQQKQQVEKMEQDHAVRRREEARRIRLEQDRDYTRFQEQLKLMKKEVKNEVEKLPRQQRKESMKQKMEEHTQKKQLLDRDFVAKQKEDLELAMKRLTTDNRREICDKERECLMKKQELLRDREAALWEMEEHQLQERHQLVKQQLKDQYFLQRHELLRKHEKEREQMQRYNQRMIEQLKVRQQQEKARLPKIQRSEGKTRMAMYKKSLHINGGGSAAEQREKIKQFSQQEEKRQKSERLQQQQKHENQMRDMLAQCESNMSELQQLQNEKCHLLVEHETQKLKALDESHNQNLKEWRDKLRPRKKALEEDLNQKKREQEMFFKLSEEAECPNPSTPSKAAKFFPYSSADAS

Consider `Nc1cnc(N2CCc3cc(S(=O)(=O)Nc4c(F)cc(Cl)cc4F)cc(N4CCCC4=O)c32)nc1` [TP-020n], for which the % of inhibition in test [1] was -15.8%.

As to `CC[C@@H]1[C@H](F)C(=O)N[C@@H]1COc1nccc2cc(C(N)=O)c(OC)cc12` [ZIMLOVISERTIB], the % of inhibition is 6.6% in test [2] (at 0.01 µM); -1.6% in test [2] (at 0.04 µM); 6.9% in test [2] (at 0.2 µM); 12.9% in test [2] (at 1 µM); 41.7% in test [2] (at 5 µM); 8.5% in test [3]. Besides, the % of inhibition in test [4] was -97%.

As for `N#Cc1cccc(-c2c[nH]c3ncnc(N4CCOCC4)c23)c1`, the % of inhibition in test [5] worked out at 14%.

Turning to `CN1Cc2nccc(-c3cn(C)nc3-c3ccc(F)cc3)c2C1=O`, in test [6], the % of inhibition is -2%.
